Paper PMC7297817, “Pharmacological Characterization of a Betaine/GABA Transporter 1 (BGT1) Inhibitor Displaying an Unusual Biphasic Inhibition Profile and Anti-seizure Effects” (Neurochemical Research, 2020)
pIC50, pKi: −log10 of the molar value. Entries after “also recorded” stand apart in the source; their conditions may differ. Where two headings read alike, the source gives them in different places.

Legend:
M3 = molecular target: T1, M3 (Homo sapiens, UniProt P20309); test: NIMH PDSP radioligand binding, M3
T1 construct: purchased NIMH Psychoactive Drug Screening Program (PDSP)

M5 = molecular target: T2, M5 (Homo sapiens, UniProt P08912); test: NIMH PDSP radioligand binding, M5
T2 construct: purchased NIMH Psychoactive Drug Screening Program (PDSP)

M1 = molecular target: T3, M1 (Homo sapiens, UniProt P11229); test: NIMH PDSP radioligand binding, M1
T3 construct: purchased NIMH Psychoactive Drug Screening Program (PDSP)

5-HT6 = molecular target: T4, 5-HT6 (Homo sapiens, UniProt P50406); test: NIMH PDSP radioligand binding, 5-HT6; conditions: radioligand [3H]LSD, n=4
T4 construct: NIMH PDSP (screening service)

hGAT2 = molecular target: T5, hGAT2 (Homo sapiens, UniProt Q9NSD5); test: [3H]GABA uptake at hGAT2 stably expressed in CHO cells; type: cell-based
T5 construct: expressed in transfected cells
T5 sequence (Q9NSD5 1-602): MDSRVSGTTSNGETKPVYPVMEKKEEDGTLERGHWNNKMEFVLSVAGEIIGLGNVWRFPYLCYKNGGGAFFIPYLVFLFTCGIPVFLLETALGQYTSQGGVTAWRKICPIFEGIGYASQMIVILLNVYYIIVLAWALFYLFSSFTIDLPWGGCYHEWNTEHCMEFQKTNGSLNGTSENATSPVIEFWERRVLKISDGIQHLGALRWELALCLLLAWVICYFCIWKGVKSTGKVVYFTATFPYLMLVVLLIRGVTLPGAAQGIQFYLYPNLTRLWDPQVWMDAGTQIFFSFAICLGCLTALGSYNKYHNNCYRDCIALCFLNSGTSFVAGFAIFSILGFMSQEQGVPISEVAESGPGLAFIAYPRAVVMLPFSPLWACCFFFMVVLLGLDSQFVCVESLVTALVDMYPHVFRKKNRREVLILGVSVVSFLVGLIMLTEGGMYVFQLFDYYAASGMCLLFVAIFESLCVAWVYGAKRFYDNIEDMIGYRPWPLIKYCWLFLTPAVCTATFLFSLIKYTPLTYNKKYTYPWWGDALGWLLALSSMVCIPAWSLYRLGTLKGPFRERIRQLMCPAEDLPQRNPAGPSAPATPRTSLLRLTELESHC
Method: (§1) The HEK-293 and Flp-In CHO cell lines stably expressing mouse (m) and human (h) GATs, respectively, have been described previously and were cultured accordingly. The tsA201 cell line was used for transient expression while the MDCK II cell line express BGT1 endogenously. Both cell lines were cultured as described. tsA201 cells were transfected with DNA constructs (8 μg per 10 cm dish if not otherwise mentioned) using 40 μL PolyFect transfection reagent according to the manufacturer’s protocol (Qiagen, Venlo, Netherlands). The DNA constructs encoding hBGT1, hGAT1-3 [36], the mutated constructs hBGT1 Q299 and hGAT3 L314Q described previously, and hBGT Y453A were synthesized and sequence validated by Genscript (NJ, USA).
(§2) The [^3H]GABA competition uptake assay was performed as previously described. A minor change, however, was introduced for uptake in MDCK II cells, in which 100 nM [^3H]GABA was used for a 15 min incubation period at 37 °C instead of 30 nM [^3H]GABA and 3 min incubation. Studies related to the inhibition curves with GABA and BPDBA at hBGT1 were obtained both with and without the presence of 10 μM ATP during the [^3H]GABA uptake assay.
(§3) The [^3H]GABA uptake data was normalized to the percentage of total uptake in the individual experiments in the presence of the lowest compound concentration or no compound present. Data presented is the pooled data of at least three independent experiments with three technical replicates. Concentration–response curves (CRCs) were fitted with GraphPad Prism (version 8.2.1, Yosemite, GraphPad Software, San Diego, CA, USA) by non-linear regression to the sigmoidal concentration response model: Y=Bottom+(Top-Bottom)/1+10^LogIC50-X∗nH where Top is the Top plateau, Bottom is the Bottom plateau, X is the logarithm of the concentration of the compound, LogIC50 is the concentration giving a response halfway between Top and Bottom,and nH is the Hill slope.
(§4) The best fit for CRCs obtained with the [^3H]GABA uptake assay was identified by the extra-sum-of-squares F test (for convenience referred to as F test).

D5 = molecular target: T6, D5 (Homo sapiens, UniProt P21918); test: NIMH PDSP radioligand binding, D5; conditions: radioligand [3H]SCH23390
T6 construct: NIMH PDSP (screening service)

M4 = molecular target: T7, M4 (Homo sapiens, UniProt P08173); test: NIMH PDSP radioligand binding, M4
T7 construct: purchased NIMH Psychoactive Drug Screening Program (PDSP)

H1 = molecular target: T8, H1 (Homo sapiens, UniProt P35367); test: NIMH PDSP radioligand binding, H1; conditions: radioligand [3H]pyrilamine, n=4
T8 construct: purchased NIMH Psychoactive Drug Screening Program (PDSP)

Alpha2B = molecular target: T9, Alpha2B (Homo sapiens, UniProt P18089); test: NIMH PDSP radioligand binding, Alpha2B; conditions: radioligand [3H]rauwolscine, n=4
T9 construct: purchased NIMH Psychoactive Drug Screening Program (PDSP)

D3 = molecular target: T10, D3 (Homo sapiens, UniProt P35462); test: NIMH PDSP radioligand binding, D3; conditions: radioligand [3H]N-methylspiperone, n=4
T10 construct: purchased NIMH Psychoactive Drug Screening Program (PDSP)

5-HT2B = molecular target: T11, 5-HT2B (Homo sapiens, UniProt P41595); test: NIMH PDSP radioligand binding, 5-HT2B; conditions: radioligand [3H]LSD
T11 construct: NIMH PDSP (screening service)

NET = molecular target: T12, NET (Homo sapiens, UniProt P23975); test: NIMH PDSP radioligand binding, NET; conditions: radioligand [3H]nisoxetine, n=4
T12 construct: purchased NIMH Psychoactive Drug Screening Program (PDSP)

DOR = molecular target: T13, DOR (Homo sapiens, UniProt P41143); test: NIMH PDSP radioligand binding, DOR; conditions: radioligand [3H]DADLE, n=4
T13 construct: purchased NIMH Psychoactive Drug Screening Program (PDSP)

Sigma2 = test: NIMH PDSP radioligand binding, Sigma2; conditions: 10 μM; radioligand [3H]DTG; n=4
Method: IC50 values in μM (Ki μM)^a. The targets in bold were inhibited by >35% at 10 μM.

5-HT2C = molecular target: T14, 5-HT2C (Homo sapiens, UniProt P28335); test: NIMH PDSP radioligand binding, 5-HT2C; conditions: radioligand [3H]mesulergine
T14 construct: NIMH PDSP (screening service)

Alpha1D = molecular target: T15, Alpha1D (Homo sapiens, UniProt P25100); test: NIMH PDSP radioligand binding, Alpha1D; conditions: radioligand [3H]prazosine, n=4
T15 construct: purchased NIMH Psychoactive Drug Screening Program (PDSP)

mGAT1 = molecular target: T16, mGAT1 (Mus musculus, UniProt P31648); test: [3H]GABA uptake at mGAT1 stably expressed in HEK-293 cells; type: cell-based
T16 construct: expressed in transfected cells
Method: as §1, §2, §3, §4

Alpha1A = molecular target: T17, Alpha1A (Homo sapiens, UniProt P35348); test: NIMH PDSP radioligand binding, Alpha1A; conditions: radioligand [3H]prazosine, n=4
T17 construct: purchased NIMH Psychoactive Drug Screening Program (PDSP)

T14 sequence (P28335 33-458, species assumed): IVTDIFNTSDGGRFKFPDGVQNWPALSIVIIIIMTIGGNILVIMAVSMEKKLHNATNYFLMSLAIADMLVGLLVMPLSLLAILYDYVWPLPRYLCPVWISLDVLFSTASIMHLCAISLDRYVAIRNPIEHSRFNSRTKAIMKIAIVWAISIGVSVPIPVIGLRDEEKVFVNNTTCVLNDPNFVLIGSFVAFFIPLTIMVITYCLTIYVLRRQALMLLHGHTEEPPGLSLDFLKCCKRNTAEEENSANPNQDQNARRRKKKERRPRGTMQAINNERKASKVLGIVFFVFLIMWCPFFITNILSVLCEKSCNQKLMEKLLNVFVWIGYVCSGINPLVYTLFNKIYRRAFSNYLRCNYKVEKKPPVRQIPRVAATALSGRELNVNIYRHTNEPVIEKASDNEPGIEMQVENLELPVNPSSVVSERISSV
T11 sequence (P41595 whole entry, species assumed): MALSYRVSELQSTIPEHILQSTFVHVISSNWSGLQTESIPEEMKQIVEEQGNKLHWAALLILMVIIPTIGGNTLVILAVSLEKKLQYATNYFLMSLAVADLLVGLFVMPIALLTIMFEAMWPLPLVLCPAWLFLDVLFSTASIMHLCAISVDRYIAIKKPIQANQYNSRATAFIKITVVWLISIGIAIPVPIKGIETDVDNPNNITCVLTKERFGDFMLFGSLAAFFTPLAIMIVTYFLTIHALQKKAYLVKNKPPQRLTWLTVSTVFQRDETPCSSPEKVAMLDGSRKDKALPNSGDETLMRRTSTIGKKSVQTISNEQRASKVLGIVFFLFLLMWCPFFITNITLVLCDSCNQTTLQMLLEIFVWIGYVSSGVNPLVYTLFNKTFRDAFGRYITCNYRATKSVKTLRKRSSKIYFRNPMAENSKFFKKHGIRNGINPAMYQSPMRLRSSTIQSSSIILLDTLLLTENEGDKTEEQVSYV
T6 sequence (P21918 whole entry): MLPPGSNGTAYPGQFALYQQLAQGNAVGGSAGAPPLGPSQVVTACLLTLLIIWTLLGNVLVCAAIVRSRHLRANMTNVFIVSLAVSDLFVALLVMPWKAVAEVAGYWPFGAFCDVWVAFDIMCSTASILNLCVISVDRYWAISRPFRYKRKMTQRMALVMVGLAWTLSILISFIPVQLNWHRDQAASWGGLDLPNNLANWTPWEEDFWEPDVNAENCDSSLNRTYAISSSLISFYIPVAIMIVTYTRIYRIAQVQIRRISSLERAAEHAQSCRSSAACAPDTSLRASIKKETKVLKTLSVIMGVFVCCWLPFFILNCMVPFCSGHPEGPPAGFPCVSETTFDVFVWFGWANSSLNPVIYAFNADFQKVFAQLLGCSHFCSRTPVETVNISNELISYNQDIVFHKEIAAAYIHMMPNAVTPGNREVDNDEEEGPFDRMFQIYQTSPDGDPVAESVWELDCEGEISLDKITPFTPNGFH
T12 sequence (P23975 whole entry): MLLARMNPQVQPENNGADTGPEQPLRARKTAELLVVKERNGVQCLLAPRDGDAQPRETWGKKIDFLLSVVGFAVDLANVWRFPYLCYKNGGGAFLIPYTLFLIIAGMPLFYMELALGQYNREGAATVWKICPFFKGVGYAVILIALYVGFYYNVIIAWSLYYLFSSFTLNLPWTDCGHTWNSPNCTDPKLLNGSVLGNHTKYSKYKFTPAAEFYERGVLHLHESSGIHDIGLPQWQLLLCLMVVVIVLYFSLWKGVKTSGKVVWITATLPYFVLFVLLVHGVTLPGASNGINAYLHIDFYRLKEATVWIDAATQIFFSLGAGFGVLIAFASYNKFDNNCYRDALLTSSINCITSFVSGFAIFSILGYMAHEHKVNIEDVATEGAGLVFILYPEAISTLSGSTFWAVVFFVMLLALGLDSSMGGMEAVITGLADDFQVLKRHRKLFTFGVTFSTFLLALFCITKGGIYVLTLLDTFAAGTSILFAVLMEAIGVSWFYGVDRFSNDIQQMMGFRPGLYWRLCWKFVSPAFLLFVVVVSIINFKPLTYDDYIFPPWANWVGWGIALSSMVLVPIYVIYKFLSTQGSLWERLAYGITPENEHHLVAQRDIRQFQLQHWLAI
T8 sequence (P35367 whole entry): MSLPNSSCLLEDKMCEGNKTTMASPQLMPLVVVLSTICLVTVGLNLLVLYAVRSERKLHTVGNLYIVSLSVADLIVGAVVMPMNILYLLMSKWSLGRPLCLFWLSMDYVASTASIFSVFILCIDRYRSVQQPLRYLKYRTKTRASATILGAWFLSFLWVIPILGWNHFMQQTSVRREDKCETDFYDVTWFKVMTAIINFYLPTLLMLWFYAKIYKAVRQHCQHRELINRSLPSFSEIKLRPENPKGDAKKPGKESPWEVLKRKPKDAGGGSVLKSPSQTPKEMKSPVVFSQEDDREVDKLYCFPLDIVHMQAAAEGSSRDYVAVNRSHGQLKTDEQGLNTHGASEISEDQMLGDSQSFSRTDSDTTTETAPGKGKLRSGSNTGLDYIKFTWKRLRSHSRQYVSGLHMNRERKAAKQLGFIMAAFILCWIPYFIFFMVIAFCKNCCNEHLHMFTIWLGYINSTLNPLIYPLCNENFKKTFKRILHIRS
T13 sequence (P41143 whole entry): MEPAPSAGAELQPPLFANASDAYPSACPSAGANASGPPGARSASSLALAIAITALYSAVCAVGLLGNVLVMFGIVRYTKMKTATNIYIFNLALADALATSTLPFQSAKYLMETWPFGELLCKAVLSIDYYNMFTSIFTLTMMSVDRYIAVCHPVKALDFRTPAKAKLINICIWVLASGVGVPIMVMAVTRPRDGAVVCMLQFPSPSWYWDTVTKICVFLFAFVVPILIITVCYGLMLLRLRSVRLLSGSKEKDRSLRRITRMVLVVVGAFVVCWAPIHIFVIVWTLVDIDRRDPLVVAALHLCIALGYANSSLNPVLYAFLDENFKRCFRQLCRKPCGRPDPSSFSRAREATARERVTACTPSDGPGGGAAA
T9 sequence (P18089 whole entry): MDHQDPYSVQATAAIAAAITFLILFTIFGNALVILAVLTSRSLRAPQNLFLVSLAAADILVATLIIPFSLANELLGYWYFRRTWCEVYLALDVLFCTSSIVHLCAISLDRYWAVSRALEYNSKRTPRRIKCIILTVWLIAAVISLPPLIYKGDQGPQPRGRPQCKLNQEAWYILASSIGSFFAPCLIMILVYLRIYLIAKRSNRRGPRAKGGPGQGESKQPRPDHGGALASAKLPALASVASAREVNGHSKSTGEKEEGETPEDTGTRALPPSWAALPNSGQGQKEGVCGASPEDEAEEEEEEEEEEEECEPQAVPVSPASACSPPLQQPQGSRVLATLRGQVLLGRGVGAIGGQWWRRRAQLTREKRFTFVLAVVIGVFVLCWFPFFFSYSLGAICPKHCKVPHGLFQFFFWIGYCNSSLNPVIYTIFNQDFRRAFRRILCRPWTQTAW
T7 sequence (P08173 whole entry): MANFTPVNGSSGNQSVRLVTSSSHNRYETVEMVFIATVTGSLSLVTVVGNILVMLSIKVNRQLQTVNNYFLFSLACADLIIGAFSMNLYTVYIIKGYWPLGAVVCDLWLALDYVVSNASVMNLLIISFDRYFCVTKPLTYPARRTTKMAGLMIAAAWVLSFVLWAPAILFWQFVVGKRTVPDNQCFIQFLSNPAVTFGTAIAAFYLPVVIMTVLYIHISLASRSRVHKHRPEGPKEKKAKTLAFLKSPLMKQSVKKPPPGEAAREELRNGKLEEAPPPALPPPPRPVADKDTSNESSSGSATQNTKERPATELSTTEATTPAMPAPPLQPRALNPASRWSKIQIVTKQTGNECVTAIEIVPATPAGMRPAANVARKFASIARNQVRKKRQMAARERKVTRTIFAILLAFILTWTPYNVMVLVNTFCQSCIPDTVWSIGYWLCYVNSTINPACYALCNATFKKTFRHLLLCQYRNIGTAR
T1 sequence (P20309 whole entry): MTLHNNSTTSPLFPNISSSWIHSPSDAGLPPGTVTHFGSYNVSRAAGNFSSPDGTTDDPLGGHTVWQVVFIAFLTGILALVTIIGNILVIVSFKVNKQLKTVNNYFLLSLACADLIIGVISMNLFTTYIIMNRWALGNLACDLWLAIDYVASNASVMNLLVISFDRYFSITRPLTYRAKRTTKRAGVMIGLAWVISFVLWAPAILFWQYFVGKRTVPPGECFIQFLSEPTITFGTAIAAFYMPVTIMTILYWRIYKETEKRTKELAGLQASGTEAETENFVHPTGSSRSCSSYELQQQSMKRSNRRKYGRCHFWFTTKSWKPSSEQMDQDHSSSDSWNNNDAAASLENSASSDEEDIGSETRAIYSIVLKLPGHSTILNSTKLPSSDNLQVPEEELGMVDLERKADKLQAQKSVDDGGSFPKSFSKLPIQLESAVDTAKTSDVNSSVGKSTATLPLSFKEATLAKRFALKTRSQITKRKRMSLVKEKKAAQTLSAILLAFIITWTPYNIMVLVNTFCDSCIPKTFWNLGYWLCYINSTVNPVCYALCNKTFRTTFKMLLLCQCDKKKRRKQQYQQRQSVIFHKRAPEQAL

SMILES: Cc1ccsc1C(=CCCN(C)[C@H]1CCCC[C@H]1C(=O)O)c1sccc1C [SBV2-114, (1R,2S)-2-((4,4-bis(3-methylthiophen-2-yl)but-3-en-yl)(methyl)amino)cyclohexanecarboxylic acid]
- inhibition at 10 µM (M3): 55.4%
- inhibition at 10 µM (M5): 23.5%
- inhibition at 10 µM (M1): 18.3%
- inhibition at 10 µM (5-HT6): 50%
- pIC50 (hGAT2; ambiguous fit, N=3, CHO, read-out: IC50): 3.28
- Frac (hGAT2; biphasic fit, N=1, CHO): 0.06
- pIC50 (hGAT2; biphasic fit, N=1, CHO, read-out: IC50, high affinity component): 5.48
- Fit (hGAT2; preferred model per experiment): Biphasic; also recorded: Ambiguous
- pIC50 (hGAT2; read-out: IC50, low affinity component, biphasic fit, N=1, CHO): 3.26
- inhibition at 10 µM (D5; 10 μM, n=4): 51.7%
- pKi (D5; full curve, printed with 'ave'): 5.00
- inhibition at 10 µM (M4): -5.7%
- inhibition at 10 µM (H1): 51.2%
- inhibition at 10 µM (Alpha2B): 24.9%
- inhibition at 10 µM (D3): 27.8%
- inhibition at 10 µM (5-HT2B; 10 μM, n=4): 96.8%
- pKi (5-HT2B; full curve): 6.38
- inhibition at 10 µM (NET): 0.1%
- inhibition at 10 µM (DOR): 36.6%
- % inhibition (Sigma2): 48.3%
- inhibition at 10 µM (5-HT2C; 10 μM, n=4): 77.5%
- pKi (5-HT2C; full curve): 6.17
- inhibition at 10 µM (Alpha1D): -4.7%
- pIC50 (mGAT1; ambiguous fit, N=1 experiment, read-out: IC50): < 3.00
- Frac (mGAT1; biphasic fit, N=1 experiment): 0.14
- IC50 (mGAT1; biphasic fit, N=1 experiment, read-out: pIC50, high affinity component (converted)): 0.417 µM
- pIC50 (mGAT1; monophasic fit, N=1 experiment, read-out: IC50): < 3.00
- Fit (mGAT1; preferred model per experiment, F test): Biphasic; also recorded: Monophasic; also recorded: Ambiguous
- pIC50 (mGAT1; read-out: IC50, low affinity component, biphasic fit, N=1 experiment): 3.12
- inhibition at 10 µM (Alpha1A): 0.1%
